Where “and” joins values, the source holds several entries; their conditions need not be identical. Identical values can stand only once.
Assays:
Type in all cases: cell-based
human PPARbeta/delta = target: T1, human PPARbeta/delta (Homo sapiens, UniProt Q03181); experiment: cellular GAL4 reporter gene assay, agonist mode, PPARbeta/delta
T1 construct: expressed in transfected cells; host or cells: HEK293 (DSMZ ACC 305)
T1 sequence (Q03181 211-439 limits assumed): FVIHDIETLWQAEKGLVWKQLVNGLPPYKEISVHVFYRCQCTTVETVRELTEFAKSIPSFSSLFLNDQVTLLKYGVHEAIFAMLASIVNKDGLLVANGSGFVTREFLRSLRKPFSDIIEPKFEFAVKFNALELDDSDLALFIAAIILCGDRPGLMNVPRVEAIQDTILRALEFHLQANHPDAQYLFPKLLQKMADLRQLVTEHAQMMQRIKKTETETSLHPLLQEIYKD
Source text: (§1) The assays were done in HEK293 cells (DSMZ ACC 305). The plasmids used in the GAL4 assay system were derivatives of Stratagene's […] plasmids: the reporter plasmid pFR-Luc (containing a synthetic promoter with five tandem repeats of the yeast GAL4 binding sites that control expression of the Photinus pyralis (American firefly) luciferase gene), and pCMV-BD (for fusions of nuclear receptor ligand binding domains to the DNA-binding domain of the yeast protein GAL4). In order to improve experimental accuracy, a second reporter-Renilla reniformis luciferase, driven by a constitutive promoter-was included as an internal control. Using the control reporter (Renilla Luciferase) allowed corrections for variations in experimental handling, e.g. transfection efficacy, cell viability, pipetting errors, cell lysis efficiency and assay efficiency. […] The compounds BIZ-102 and BIZ-103 were tested at the human PPARbeta/delta and PPARgamma receptors using the same cellular GAL4 Reporter gene assays as in Example 6. The assays were run in agonist mode to detect agonistic activities of the tested compounds.

human PPARgamma = target: T2, human PPARgamma (Homo sapiens, UniProt P37231); experiment: cellular GAL4 reporter gene assay, agonist mode, PPARgamma
T2 construct: expressed in transfected cells; host or cells: HEK293 (DSMZ ACC 305)
T2 sequence (P37231 238-503 limits assumed): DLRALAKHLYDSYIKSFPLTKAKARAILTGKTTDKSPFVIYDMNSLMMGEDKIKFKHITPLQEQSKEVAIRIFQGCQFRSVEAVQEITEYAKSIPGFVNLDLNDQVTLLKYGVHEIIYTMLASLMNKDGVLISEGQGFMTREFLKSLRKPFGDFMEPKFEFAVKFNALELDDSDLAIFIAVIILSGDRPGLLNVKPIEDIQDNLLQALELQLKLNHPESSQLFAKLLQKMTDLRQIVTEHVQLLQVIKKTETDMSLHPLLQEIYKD
Source text: as §1

human PPARalpha receptor = target: T3, human PPARalpha receptor (Homo sapiens, UniProt Q07869); experiment: cellular GAL4 reporter gene assay (M1H) in HEK293 cells, PPARalpha; conditions: agonist mode; for Efficacy vs. Fenofibric Acid / Efficacy vs. GW7647: HEK293; for EC50: HEK293, GAL4 reporter
T3 construct: expressed in transfected cells; host or cells: HEK293 (DSMZ ACC 305)
T3 sequence (Q07869 239-466 limits assumed): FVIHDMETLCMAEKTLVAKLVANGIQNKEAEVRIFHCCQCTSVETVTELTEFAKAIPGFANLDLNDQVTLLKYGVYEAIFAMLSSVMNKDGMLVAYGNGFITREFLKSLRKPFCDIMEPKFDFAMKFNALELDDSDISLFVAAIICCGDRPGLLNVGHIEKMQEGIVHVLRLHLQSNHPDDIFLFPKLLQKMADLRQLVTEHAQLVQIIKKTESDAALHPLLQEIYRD
Protocol: The compounds BIZ-102 (Example 2), BIZ-103 (Example 5) and BIZ-106 were tested at the human PPARalpha receptor in a cellular GAL4 Reporter gene assay. The assay was run in agonist and antagonist mode to detect agonistic as well as antagonistic activities of the tested compounds.
Performance of the GAL4 cellular reporter assay:
Day 1: Cells were seeded in 96 well plates in plating medium (MEM with serum), incubation overnight at 37° C., 5% CO2.
Day 2: Removal of plating medium
Addition of PEI-based transfection agent
Incubation for 4-6 hours at 37° C., 5% CO2
Addition of assay medium (MEM with serum)
Addition of compounds (dilution series was generated in MEM with serum)
Incubation overnight at 37° C., 5% CO2
Day 3: Removal of assay medium (16-20 hours after compound addition)
Addition of Passive Lysis Buffer (Promega)
15 mins incubation at room temperature
Addition of luciferase buffers and measurement in a dual-flash procedure
The assays were done in HEK293 cells (DSMZ ACC 305). The plasmids used in the GAL4 assay system were derivatives of Stratagene's M2H plasmids: the reporter plasmid pFR-Luc (containing a synthetic promoter with five tandem repeats of the yeast GAL4 binding sites that control expression of the Photinus pyralis (American firefly) luciferase gene), and pCMV-BD (for fusions of nuclear receptor ligand binding domains to the DNA-binding domain of the yeast protein GAL4). In order to improve experimental accuracy, a second reporter—Renilla reniformis luciferase, driven by a constitutive promoter—was included as an internal control. Using the control reporter (Renilla Luciferase) allowed corrections for variations in experimental handling, e.g. transfection efficacy, cell viability, pipetting errors, cell lysis efficiency and assay efficiency.
Primary read out of the assays was loaded into PhAST (Phenex Assay and Screening Tool) and checked for assay quality (generation of SB and Zprime values). […] Within PhAST there are two measured and one calculated data layers:
LAYER1 (measured)—contains the activity values of the firefly luciferase activities and is a direct measure for modulation of the cofactor binding properties of the Nuclear Receptors by the tested compounds.
LAYER2 (measured)—contains the activity values of the renilla luciferase activities and is used as normalisation layer. As the renilla luciferase is expressed under control of the constitutively active CMV promoter, moderate well-to-well differences can be used to correct for variations in experimental handling.
LAYER3 (calculated)—is calculated according to the following equation: […]
1000*Firefly luciferase value/Renilla luciferase value
These normalised values are, as well as LAYER1, a measure for the modulation of the cofactor binding properties of the nuclear receptors by the tested compounds.

NF-κB pathway = experiment: NF-κB luciferase reporter assay in NF-κB Reporter-HEK293 cells, TNFa stimulated; conditions: FIG. 5
Source text: The NF-κB reporter (luc)-HEK293 cell line is designed for monitoring the nuclear factor Kappa B (NF-κB) signal transduction pathways. It contains a firefly luciferase gene driven by four copies of NF-κB response element located upstream of the minimal TATA promoter. After activation by pro-inflammatory cytokines or stimulants of lymphokine receptors, endogenous NF-κB transcription factors bind to the DNA response elements, inducing transcription of the luciferase reporter gene.
NF-κB Reporter-HEK293 cells were cultured in MEM medium with 10% FBS, 1% non-essential amino acids, 1 mM Na-pyruvate, 1% Penn-strep, and 100 µg/ml of Hygromycin B.
To perform the NF-κB luciferase reporter assay, NF-κB Reporter-HEK293 cells were seeded at 40,000 cells per well into white clear-bottom 96-well microplate in 45 μl of growth medium without Hygromycin B. Cells were incubated at 37° C. and 5% CO2 overnight to allow them to recover and reattach. The following day a series of dilutions of compounds were made in assay medium (MEM medium with 0.5% FBS, 1% non-essential amino acids, 1 mM Na-pyruvate, 1% Penn-strep). The medium was removed from the wells and 45 μl of diluted compound was added to the cells. Assay medium with DMSO was added to the untreated control wells and cell-free control wells. The final concentration of DMSO was 0.25%. The cells were incubated overnight at 37° C. in CO2 incubator. […]
After treatment, cells were then lysed and a luciferase assay was performed using the ONE-Step luciferase assay system. […] Luminescence was measured using a luminometer (BioTek Synergy™ 2 microplate reader).
Reporter assays were performed in triplicate at each concentration. The luminescence intensity data were analyzed using the computer software, Graphpad Prism. In the absence of the compound, the luminescence intensity (Lt) in each data set was defined as 100%. In the absence of cells, the luminescence intensity (Lb) in each data set was defined as 0%. The percent luminescence in the presence of each compound was calculated according to the following equation: % Luminescence=(L−Lb)/(Lt−Lb), where L=the luminescence intensity in the presence of the compound, Lb=the luminescence intensity in the absence of cells, and Lt=the luminescence intensity in the absence of the compound. The values of % luminescence versus a series of compound concentrations were then plotted using non-linear regression analysis of a Sigmoidal dose-response curve generated with the equation Y=B+(T B)/1+10^((Log EC50-X)×Hill Slope), where Y=percent luminescence, B=minimum percent luminescence, T=maximum percent luminescence, X=logarithm of compound and Hill Slope=slope factor or Hill coefficient. The IC50 value was determined by the concentration causing a half-maximal percent activity.

ARPE-19 cells = experiment: oxidative stress (tert-butyl hydroperoxide) cytolysis assay in ARPE-19 retinal pigment epithelial cells; conditions: fenofibric acid 25 μM, BIZ-101 10 μM
Protocol: In order to evaluate the potential of BIZ-101 to protective the eye from oxidative stress damage the compound was tested in a cell based assay. Oxidative stress was induced in an ARPE-19 cell line using tert-butyl hydroperoxide at different concentrations. The cellular viability was kinetically monitored and measured by analysing the plasma membrane integrity based on the incorporation of a non-permeant and fluorescent DNA intercalating agent that selectively stain cytolytic cells with comprised plasma membranes.
(§2) The ARPE-19 cell line was seeded and cultured in DMEM-F12 medium+10% SVF for 24 hrs in a 96 well plate. Cells were pre-treated or not with either fenofibric acid (25 μM) or compound BIZ-101 (10 μM) during this 24 hr period. After 24 hrs, the different concentrations of t-butyl hydroperoxide were added in the presence of a fluorescent DNA intercalating agent for the following monitoring. Live content time-lapse imaging was performed with a sampling rate of 1 image every 2 hr over a 96 hrs period. The number of fluorescent/cytolytic cells were counted and reported during the experiment. The treatment conditions were tested in one experiment session in a triplicate format.
Fenofibric acid was used at 25 μM and was ordered from Sigma Aldrich. The day of the pre-treatment, a 25 mM stock solution of fenofibric acid was prepared in DMSO and diluted in the complete culture medium at 25 μM. 100 μL of this solution or 100 μL of complete culture medium+0.1% DMSO replaced the 100 μL of the complete culture medium already present in the well. The day of the treatment with t-butyl hydroperoxide, a 2 times concentrated solution of fenofibric acid was freshly diluted in the complete culture medium and 50 μL of this solution or 50 μL of complete culture medium+0.2% DMSO were added to the 100 μL of the culture medium already present in the well.
Compound BIZ-101 was tested at a final concentration of 10 μM. A 10 mM predilution was prepared in DMSO from a 10 mM stock solution. The 10 mM solution of BIZ 101 was diluted in the complete culture medium at 10 μM. 100 μL, of this solution or 100 μL of the complete culture medium+0.1% DMSO replaced the 100 μL, of the complete culture medium already present in the well. The day of the treatment with t-butyl hydroperoxide, a 2 times concentrated solution of BIZ 101 was freshly diluted in the complete culture medium and 50 μL of this solution or 50 μL of complete culture medium+0.2% DMSO were added to the 100 μL of the culture medium already present in the well.
Preparation of the tert-butyl hydroperoxide [tBHP] solution: 0, 0.01 mM, 0.03 mM, 0.1 mM, 0.3 mM, 1 mM, 3 mM and 10 mM. A 4 times concentrated solution of tBHP was freshly diluted in the complete culture medium for each of the concentrations to be tested. 50 μL of the 4 times concentrated solution was added to the 150 μL of the cultured medium.
In order to evaluate the potential of BIZ-102 to protect the eye from oxidative stress damage the compound was tested in a cell based assay similar to Example 24 with the following changes. The oxidative stress in the ARPE-19 cell line was induced by using 3 different concentrations of tBHP: 10 μM, 30 μM and 100 μM and BIZ-102 was tested in 2 different concentrations: 1 μM and 10 μM.
as §2, with “with” for “with either fenofibric acid (25 μM) or”, “BIZ-102 (1 μM and 10” for “BIZ-101 (10”
Compound BIZ-102 was tested at a final concentration of 1 and 10 μM. […]

| SMILES | Efficacy vs. Fenofibric Acid (human PPARalpha receptor) | Efficacy vs. GW7647 (human PPARalpha receptor) | EC50 (human PPARalpha receptor) | also measured |
| --- | --- | --- | --- | --- |
| CCCCCCCCCCCCCCSC(C)C(=O)O (centres unmarked) [BIZ-103] | 55% | 180% | – | EC50 (human PPARbeta/delta): 8.9 µM; PPARbeta/delta efficacy vs. GW501516 (human PPARbeta/delta): 18%; EC50 (human PPARgamma): 1.6 µM; PPARgamma efficacy vs. Rosiglitazone (human PPARgamma): 20% |
| CC/C=C\C/C=C\C/C=C\C/C=C\C/C=C\C/C=C\CC(CC)C(=O)O (centres unmarked) [BIZ-106, 2-ethyl (4Z,7Z,10Z,13Z,16Z,19Z)-docosa-4,11,10,13,16,19-hexaenoic Acid] | 25% | 80% | ~5 µM and 5 µM | – |
| CC/C=C\C/C=C\C/C=C\C/C=C\C/C=C\CCCCOC(CC)C(=O)O (centres unmarked) [BIZ-110, 2-((5Z,8Z,11Z,14Z,17Z)-icosa-5,8,11,14,17-pentaen-1-yloxy) butanoic Acid] | – | – | – | dose dependence of inhibitory effect on the NF-κB pathway (NF-κB pathway): dose dependent; complete inhibition of the NF-κB pathway (NF-κB pathway; at high concentration): completely inhibited |

More lines, main results first:

| Efficacy vs. Fenofibric Acid (human PPARalpha receptor) | Efficacy vs. GW7647 (human PPARalpha receptor) | EC50 (human PPARalpha receptor) | SMILES | also measured |
| --- | --- | --- | --- | --- |
| 30% | 100% | ~26 µM and 26 µM | CCCCC/C=C\C/C=C\C/C=C\C/C=C\CCCC(=O)O [BIZ-107] | – |
| – | – | 10 to 18 µM | CC(C)(Oc1ccc(C(=O)c2ccc(Cl)cc2)cc1)C(=O)O [fenofibric acid, reference compound] | dose dependent cytotoxicity of tBHP (ARPE-19 cells; 6 hrs after addition of tBHP, 24 hr pre-treatment): slightly decreased; protective effects against tBHP cytotoxicity (ARPE-19 cells; 24 hrs after addition of t-BHP): more efficient |

Reference: US20190284129A1, “LIPID COMPOUNDS AND COMPOSITIONS AND THEIR OPTHALMIC USE” (BIOZEP AS, priority 2015, published 2019)
